Measured values reported in patent publication US6235748A, “Oxo-substituted compounds, process of making, and compositions and methods for inhibiting parp activity” (Guilford Pharmaceuticals Inc., priority 2000, dated 2001).
“Also recorded” adds a separate entry of the source.

What was measured:
[1] = tested on: ischemia and reperfusion of the heart in rabbits; conditions: cited from earlier work
[2] = tested on: cell viability, glucose metabolism, and DNA synthesis; conditions: cited from earlier work
colitis in rats = conditions: colitis induced by intraluminal trinitrobenzene sulfonic acid in 50% ethanol; cited from earlier work
tumor cells = conditions: synergy: co-treatment with an alkylating drug; cited from earlier work
recombinant human PARP = target: T1, recombinant human PARP (Homo sapiens, UniProt P09874); assay: PARP enzyme assay with purified recombinant human PARP, [3H]NAD; assay type: biochemical; conditions: TABLE VII; 25° C., 15 minutes; read-out: Approximate IC50's
T1 construct: purchased Trevigen (Gaithersburg, Md.)
T1 sequence (P09874 whole entry): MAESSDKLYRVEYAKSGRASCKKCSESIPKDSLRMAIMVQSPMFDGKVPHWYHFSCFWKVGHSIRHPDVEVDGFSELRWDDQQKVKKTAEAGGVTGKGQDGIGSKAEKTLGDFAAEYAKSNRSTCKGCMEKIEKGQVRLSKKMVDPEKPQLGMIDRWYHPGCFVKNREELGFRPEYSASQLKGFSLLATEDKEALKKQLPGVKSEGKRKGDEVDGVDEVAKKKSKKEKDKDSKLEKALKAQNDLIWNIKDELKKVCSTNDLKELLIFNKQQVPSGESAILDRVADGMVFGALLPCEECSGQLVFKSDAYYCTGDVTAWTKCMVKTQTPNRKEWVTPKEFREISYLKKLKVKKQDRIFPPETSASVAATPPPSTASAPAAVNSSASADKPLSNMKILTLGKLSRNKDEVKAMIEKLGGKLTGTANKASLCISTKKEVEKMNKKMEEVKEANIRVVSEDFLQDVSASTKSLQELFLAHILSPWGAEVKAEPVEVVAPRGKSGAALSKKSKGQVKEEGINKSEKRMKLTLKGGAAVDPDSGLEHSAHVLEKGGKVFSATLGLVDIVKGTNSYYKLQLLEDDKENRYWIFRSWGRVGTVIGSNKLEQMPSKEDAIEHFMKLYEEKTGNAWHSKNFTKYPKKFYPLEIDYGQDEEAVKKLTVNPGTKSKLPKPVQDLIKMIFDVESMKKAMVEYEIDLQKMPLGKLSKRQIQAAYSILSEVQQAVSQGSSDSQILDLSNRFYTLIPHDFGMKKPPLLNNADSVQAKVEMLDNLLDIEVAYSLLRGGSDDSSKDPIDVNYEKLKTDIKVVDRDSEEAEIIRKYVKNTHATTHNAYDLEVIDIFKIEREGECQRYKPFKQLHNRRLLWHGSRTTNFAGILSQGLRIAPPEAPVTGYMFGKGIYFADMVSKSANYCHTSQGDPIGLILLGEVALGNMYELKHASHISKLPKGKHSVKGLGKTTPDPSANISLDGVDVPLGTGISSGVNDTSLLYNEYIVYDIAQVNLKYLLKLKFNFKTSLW
Method: The reaction was initiated by incubating the mixture at 25° C. After 15 minutes' incubation, the reaction was terminated by adding 500 microliters of ice cold 20% (w/v) trichloroacetic acid. The precipitate formed was transferred onto a glass fiber filter (Packard Unifilter-GF/B) and washed three times with ethanol. After the filter was dried, the radioactivity is determined by scintillation counting.

[3] = tested on: NO-mediated vascular failure in endotoxic shock; conditions: in vivo; cited from earlier work
[4] = tested on: focal cerebral ischemia in male Long-Evans rats; assay: Infarct in focal cerebral ischemia: distal MCA cauterization with bilateral temporary CCA occlusion; assay type: in vivo, rat (Long-Evans); conditions: for cross-sectional infarct area distribution, result in words: FIG. 1; for damaged (infarct) volume: mean±SD
Method: (§1) Focal cerebral ischemia was produced by cauterization of the right distal MCA (middle cerebral artery) with bilateral temporary common carotid artery occlusion in male Long-Evans rats for 90 minutes. All procedures performed on the animals were approved by the University Institutional Animal Care and Use Committee of the University of Pennsylvania. A total of 42 rats (weights: 230-340 g) obtained from Charles River were used in this study. The animals fasted overnight with free access to water prior to the surgical procedure.
(§2) Two hours prior to MCA occlusion, varying amounts (control, n=14; 5 mg/kg, n=7; 10 mg/kg, n=7; 20 mg/kg, n=7; and 40 mg/kg, n=7) of the PARP inhibitor compound, 3,4-dihydro-5-[4-(1-piperidinyl)-butoxy]-1(2H)-isoquinolinone ("DPQ"), were dissolved in dimethyl sulfoxide (DMSO) using a sonicator. A volume of 1.28 ml/kg of the resulting solution was injected intraperitoneally into fourteen rats.
(§3) The rats were then anesthetized with halothane (4% for induction and 0.8%-1.2% for the surgical procedure) in a mixture of 70% nitrous oxide and 30% oxygen. The body temperature was monitored by a rectal probe and maintained at 37.5±0.5° C. with a heating blanket regulated by a homeothermic blanket control unit (Harvard Apparatus Limited, Kent, U.K.). A catheter (PE-50) was placed into the tail artery, and arterial pressure was continuously monitored and recorded on a Grass polygraph recorder (Model 7D, Grass Instruments, Quincy, Mass.). Samples for blood gas analysis (arterial pH, PaO2 and PaCO2) were also taken from the tail artery catheter and measured with a blood gas analyzer (ABL 30, Radiometer, Copenhagen, Denmark). Arterial blood samples were obtained 30 minutes after MCA occlusion.
(§4) The head of the animal was positioned in a stereotaxic frame, and a right parietal incision between the right lateral canthus and the external auditory meatus was made. Using a dental drill constantly cooled with saline, a 3 mm burr hole was prepared over the cortex supplied by the right MCA, 4 mm lateral to the sagittal suture and 5 mm caudal to the coronal suture. The dura mater and a thin inner bone layer were kept, care being taken to position the probe over a tissue area devoid of large blood vessels. The flow probe (tip diameter of 1 mm, fiber separation of 0.25 mm) was lowered to the bottom of the cranial burr hole using a micromanipulator. The probe was held stationary by a probe holder secured to the skull with dental cement. The microvascular blood flow in the right parietal cortex was continuously monitored with a laser Doppler flowmeter (FloLab, Moor, Devon, U.K., and Periflux 4001, Perimed, Stockholm, Sweden).
Focal cerebral ischemia was produced by cauterization of the distal portion of the right MCA with bilateral temporary common carotid artery (CCA) occlusion by the procedure of Chen et al., "A Model of Focal Ischemic Stroke in the Rat: Reproducible Extensive Cortical Infarction", Stroke, 17:738-43 (1986) and/or Liu et al., "Polyethylene Glycol-conjugated Superoxide Dismutase and Catalase Reduce Ischemic Brain Injury", Am. J. Physiol., 256:H589-93 (1989), both of which are hereby incorporated by reference.
Specifically, bilateral CCA's were isolated, and loops made from polyethylene (PE-10) catheter were carefully passed around the CCA's for later remote occlusion. The incision made previously for placement of the laser doppler probe was extended to allow observation of the rostral end of the zygomatic arch at the fusion point using a dental drill, and the dura mater overlying the MCA was cut. […] The burr hole was covered with a small piece of Gelform, and the wound was sutured to maintain the brain temperature within the normal or near-normal range.
After 90 minutes of occlusion, the carotid loops were released, the tail arterial catheter was removed, and all of the wounds were sutured. Gentamicin sulfate (10 mg/ml) was topically applied to the wounds to prevent infection. […]

[5] = tested on: right parietal cortex blood flow; assay: Microvascular blood flow in right parietal cortex by laser Doppler flowmetry; assay type: in vivo, rat (Long-Evans); conditions: for relative blood flow in the right parietal cortex on occlusion: control 20.8±7.7%
Method: as §4
Since the blood flow values obtained from the laser doppler were in arbitrary units, only percent changes from the baseline (prior to occlusion) were reported.

[6] = Arterial blood gases and mean arterial blood pressure in the focal cerebral ischemia model; assay type: in vivo, rat (Long-Evans); conditions: for MABP, ischemia: average during occlusion; for MABP, steady state: just prior to occlusion
Method: as §1, §2, §3
A "steady state" MABP was taken following completion of the surgical preparation, just prior to occlusion; an "ischemia" MABP was taken as the average MABP during occlusion.

## NC(=O)c1cccc(N)c1 [3-aminobenzamide]
[1]; 10 mg/kg, single injection one minute before occlusion or one minute before reperfusion
  reduction in infarct size in the heart: 32-42%
[2]
  effect on other metabolic processes, result in words: shown to affect cell viability, glucose metabolism, and DNA synthesis
Colitis in rats
  effect on colitis, result in words: reduced the inflammatory response and restored the morphology and the energetic status of the distal colon

## O=c1[nH]c2ccccc2c2ccccc12 [6(5H)-Phenanthridinone]
Tumor cells
  effect on tumor cells, result in words: reduced proliferation of tumor cells, and a marked synergistic effect when tumor cells are co-treated with this compound and an alkylating drug

## O=c1[nH]c2cc(F)ccc2c2ccccc12
Recombinant human PARP
  IC50: ~200 nM

## Oc1cccc2c(O)nccc12 [1,5-dihydroxy-isoquinoline]
[1]; 1 mg/kg
  reduction in infarct size: 38-48%

## NC(=O)c1cccnc1 [nicotinamide]
[3]
  effect on vascular failure in endotoxic shock, result in words: protects against delayed, NO-mediated vascular failure in endotoxic shock

## O=C1NCCc2c(OCCCCN3CCCCC3)cccc21 [3,4-dihydro-5-[4-(1-piperidinyl)-butoxy]-1(2H)-isoquinolinon] [3,4-dihydro-5-[4-(1-piperidinyl)-butoxy]-1(2H)-isoquinolinone]
[4]; 5 mg/kg and 20 mg/kg
  cross-sectional infarct area distribution, result in words: fell approximately halfway between the control and the 10 mg/kg curves
[4]; 40 mg/kg
  infarct volume, result in words: less neuroprotective
  cross-sectional infarct area distribution, result in words: close to the control
[4]; overall / dose comparison
  infarct volume, result in words: U-shaped dose-response curve

## O=C1NCCc2c(OCCCCN3CCCCC3)cccc21 [DPQ, 3,4-dihydro-5-[4-(1-piperidinyl)-butoxy]-1(2H)-isoquinolinone]
[4]; 5 mg/kg i.p. 2 h before and 2 h after MCA occlusion, p<0.001 vs control (165.2±34.0 mm^3)
  damaged (infarct) volume: 106.7±23.2 mm^3
[4]; 10 mg/kg i.p. 2 h before and 2 h after MCA occlusion, p<0.001 vs control (165.2±34.0 mm^3)
  damaged (infarct) volume: 76.4±16.8 mm^3
[4]; 20 mg/kg i.p. 2 h before and 2 h after MCA occlusion, p<0.01 vs control (165.2±34.0 mm^3)
  damaged (infarct) volume: 110.2±42.0 mm^3
[4]; 40 mg/kg
  infarct volume, result in words: no significant difference between the control and the 40 mg/kg-treated group
[4]; 40 mg/kg i.p. 2 h before and 2 h after MCA occlusion, not significant vs control (165.2±34.0 mm^3)
  damaged (infarct) volume: 135.6±44.8 mm^3
[4]; 5, 10 and 20 mg/kg
  damaged volume compared to control, result in words: significant decrease in the damaged volume
[4]; overall / dose comparison
  infarct volume, result in words: significant differences between the 5 mg/kg-treated group and the 10 mg/kg-treated group (p<0.02), and between the 10 mg/kg-treated group and the 40 mg/kg-treated group (p<0.01); also recorded: substantial reduction in infarct volume
[5]; 5 mg/kg-treated group (n=7)
  relative blood flow in the right parietal cortex on occlusion: 18.7±7.4 % of the baseline
[5]; 10 mg/kg-treated group (n=7)
  relative blood flow in the right parietal cortex on occlusion: 21.4±7.7 % of the baseline
[5]; 40 mg/kg-treated group (n=7)
  relative blood flow in the right parietal cortex on occlusion: 19.3±11.2 % of the baseline
[5]; control, 5, 10 and 40 mg/kg
  blood flow response to occlusion, result in words: no significant differences in the blood flow response to occlusion among the four groups
[6]; 5 mg/kg-treated group
  PaCO2: 38.0 mm Hg
  PaO2: 126 ± 20 mm Hg
  arterial pH: 7.36
  MABP, steady state: 78 ± 5 mm Hg
[6]; 5 mg/kg-treated group, p < 0.01 vs steady state
  MABP, ischemia: 91 ± 12 mm Hg
[6]; 10 mg/kg-treated group
  PaCO2: 39.3 mm Hg
  PaO2: 125 ± 16 mm Hg
  arterial pH: 7.34
  MABP, steady state: 80 ± 9 mm Hg
[6]; 10 mg/kg-treated group, p < 0.05 vs steady state
  MABP, ischemia: 90 ± 14 mm Hg
[6]; 20 mg/kg-treated group
  PaCO2: 41.3 mm Hg
  PaO2: 122 ± 14 mm Hg
  arterial pH: 7.35
  MABP, steady state: 79 ± 10 mm Hg
[6]; 20 mg/kg-treated group, p < 0.01 vs steady state
  MABP, ischemia: 91 ± 12 mm Hg
[6]; 40 mg/kg-treated group
  PaCO2: 39.5 mm Hg
  PaO2: 137 ± 17 mm Hg
  arterial pH: 7.33
  MABP, steady state: 78 ± 4 mm Hg
[6]; 40 mg/kg-treated group, p < 0.05 vs steady state
  MABP, ischemia: 88 ± 12 mm Hg
[6]; all five groups including control
  MABP, result in words: MABP was significantly elevated following occlusion in all five groups, there were no significant differences in MABP during the occlusion period among the groups
[6]; control and treated groups
  arterial blood gases (PaO2, PaCO2 and pH), result in words: within the physiological range in the control and treated groups with no significant differences in these parameters among the five groups

## NC(=O)c1ccccc1 [benzamide]
[2]
  effect on other metabolic processes, result in words: shown to affect cell viability, glucose metabolism, and DNA synthesis
